Measurements from article PMC2677626, “How β-Lactam Antibiotics Enter Bacteria: A Dialogue with the Porins” (PLoS ONE, 2009).

Target: T1, OmpC (Escherichia coli, UniProt P06996)
T1 construct: OmpC porin in planar lipid bilayer
Experiment: single-channel ion current blockage in planar lipid bilayer
Format: binding
Details: data not shown in paper; same pattern as Omp36

T1 sequence (P06996 22-367): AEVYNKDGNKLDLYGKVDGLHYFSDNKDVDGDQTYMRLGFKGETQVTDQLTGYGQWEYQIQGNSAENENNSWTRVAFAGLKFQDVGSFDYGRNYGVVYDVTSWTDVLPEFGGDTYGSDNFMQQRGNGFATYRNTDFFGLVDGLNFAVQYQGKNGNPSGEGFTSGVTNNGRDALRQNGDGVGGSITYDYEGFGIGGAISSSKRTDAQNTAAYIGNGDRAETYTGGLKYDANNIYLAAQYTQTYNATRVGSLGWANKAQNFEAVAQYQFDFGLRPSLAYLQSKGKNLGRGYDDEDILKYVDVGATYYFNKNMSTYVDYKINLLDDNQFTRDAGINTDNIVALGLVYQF

SMILES | single-channel ion current blockage in planar lipid bilayer
CO/N=C(\C(=O)N[C@@H]1C(=O)N2C(C(=O)[O-])=C(C[N+]3(C)CCCC3)CS[C@H]12)c1csc(N)n1 [cefepime] | showed the same pattern of interaction with ertapenem, cefepime, ceftazidime and ampicillin (data not shown)
C[C@@H](O)[C@H]1C(=O)N2C(C(=O)O)=C(S[C@@H]3CN[C@H](C(=O)Nc4cccc(C(=O)O)c4)C3)[C@H](C)[C@H]12 [ertapenem] | showed the same pattern of interaction with ertapenem, cefepime, ceftazidime and ampicillin (data not shown)
